{"source": "patent US12428455B2", "about": "“Dominant negative CEBPB and CEBPD proteins and methods of use for decreasing viability of neoplastic cells” (The Trustees of Columbia University in the City of New York, priority 2018, dated 2025)", "key": {"[1]": {"test_system": "HCT116 cells", "test": "Apoptotic nuclei, propidium iodide flow cytometry, HCT116", "format": "cell-based", "settings": "20 μM, 3 days, vs untreated cells", "protocol": "(§1) MDA-MB-231, MCF7, HCT116 and T98G cancer cell lines were treated for 3 days with 20 μM CP-dn-CEBPB and CP-dn-CEBPD peptides from stock solutions prepared without additives. Cultures were stained with propidium iodide and assessed for proportion of cells with apoptotic nuclei by flow cytometry."}, "[2]": {"test_system": "MDA-MB-231, MCF7, HCT116 and T98G cancer cell lines", "test": "PI-Annexin staining and flow cytometry, cancer cell lines", "format": "cell-based", "settings": "20 μM, 3 days", "protocol": "MDA-MB-231, MCF7, HCT116 and T98G cancer cell lines and HIEC-6 non-cancer cell lines were treated for 3 days with 20 μM CP-dn-CEBPB and CP-dn-CEBPD peptides from stock solutions prepared without additives, followed by PI-Annexin staining and flow cytometry. Numbers in upper and lower quadrants indicate % of cells in early (lower) or late (upper) apoptotic phase."}, "[3]": {"test_system": "T98G cells", "test": "Colony forming activity in soft agar, T98G", "format": "cell-based", "settings": "6 days; doses 0.05, 0.5 and 5 μM", "protocol": "(§2) T98G (FIG. 21A), MDA-MB 231 (FIG. 21B), and HCT116 (FIG. 21C) cells were exposed to CP-DN-CEBPB and CP-DN-CEBPD for 6 days at doses of 0.05 μM 0.5 μM, and 5 μM while growing in soft agar. Growth was inhibited by does as low as 0.5 μM. T98G (FIG. 21D), MDA-MB 231 (FIG. 21E), and HCT116 (FIG. 21F) cells were exposed to CP-DN-CEBPB and CP-DN-CEBPD for 6 days at doses of 0.05 μM 0.5 μM, and 5 μM while growing on culture plates. Growth was inhibited by does as low as 0.5 μM."}, "[4]": {"test_system": "HCT116 cells", "test": "Colony forming activity on culture plates, HCT116", "format": "cell-based", "settings": "6 days; doses 0.05, 0.5 and 5 μM", "protocol": "as §2"}, "[5]": {"test_system": "IL6", "test": "qPCR for IL6 mRNA", "format": "cell-based", "settings": "20 μM, 3 days; T98G, MDA-MB-231, MCF7, A375 and HCT116 cells", "protocol": "T98G, MDA-MB-231, MCF7, A375, and HCT116 cells were treated with or without 20 μM CP-dn-CEBPB or CP-dn-CEBPD for 3 days and then assessed by qPCR for relative levels of IL6 (FIG. 32A, T98G; FIG. 32B, MDA-MB-231; FIG. 32C, MCF7; FIG. 32D, A375; FIG. 32E, HCT116) and IL8 mRNA (FIG. 32F, T98G; FIG. 32G, MDA-MB-231; FIG. 32H, MCF7; FIG. 32I, A375; FIG. 32J, HCT116)."}, "[6]": {"test_system": "MDA-MB 231 cells", "test": "Colony forming activity in soft agar, MDA-MB 231", "format": "cell-based", "settings": "6 days; doses 0.05, 0.5 and 5 μM", "protocol": "as §2"}, "[7]": {"test_system": "MCF7 cells", "test": "Apoptotic nuclei, propidium iodide flow cytometry, MCF7", "format": "cell-based", "settings": "20 μM, 3 days, vs untreated cells", "protocol": "as §1"}, "[8]": {"test_system": "HCT116 colon cancer cells", "test": "Cell number after peptide treatment, HCT116", "format": "cell-based", "settings": "6 days, 0 μM to 50 μM; stock without BSA", "protocol": "(§3) Replicate cultures were exposed to the peptides the for 6 days at the indicated concentrations. Stock solutions of the peptides were prepared in buffer without added bovine serum albumin (BSA).\n(§4) Replicate cultures of HCT116, MDA-MB 231, MCF7, and T98G cells were exposed to a 50/50 by concentration mixture of CP-DN-CEBPB and CP-DN-CEBPD for 6 days at doses of 0 μM to 50 μM. Stock solutions of the peptides were prepared in buffer without added bovine serum albumin (BSA).\n(§5) Replicate cultures of T98G, HCT116, MDA-MB 231, and MCF7 cells were exposed to CP-DN-CEBPB, CP-DN-CEBPD, or a CP-DN-CEBPD in which heptad repeat leucine residues were mutated to glycine residues for 6 days at doses of 0 μM to 50 μM. Stock solutions of the peptides were prepared in buffer without added bovine serum albumin (BSA)."}, "[9]": {"test_system": "ASNS (Asparagine synthetase)", "test": "qPCR for ASNS", "format": "cell-based", "settings": "20 μM, 3 days; T98G, MDA-MB-231, MCF7, A375 and HCT116 cells", "protocol": "T98G, MDA-MB-231, MCF7, A375, and HCT116 cells were treated with or without 20 μM CP-dn-CEBPB or CP-dn-CEBPD for 3 days and then assessed by qPCR for relative levels of ASNS (Asparagine synthetase) (FIG. 33A, T98G; FIG. 33B, MDA-MB-231; FIG. 33C, MCF7; FIG. 33D, A375; FIG. 33E, HCT116)."}, "[10]": {"test_system": "BMF transcripts", "test": "qPCR for BMF transcripts", "format": "cell-based", "settings": "20 μM, 3 days; T98G, MDA-MB-231, MCF7, A375 and HCT116 cells", "protocol": "T98G, MDA-MB-231, MCF7, A375, and HCT116 cells were treated with or without 20 μM CP-dn-CEBPB or CP-dn-CEBPD for 3 days and then assessed by qPCR for relative levels of BMF transcripts (FIG. 35A, T98G; FIG. 35B, MDA-MB-231; FIG. 35C, MCF7; FIG. 35D, A375; FIG. 35E, HCT116)."}, "[11]": {"test_system": "MDA-MB-231 breast cancer cells", "test": "Cell number after peptide treatment, MDA-MB-231", "format": "cell-based", "settings": "6 days, 0 μM to 50 μM; stock without BSA", "protocol": "as §3, §4, §5"}, "[12]": {"test_system": "MDA-MB-468 breast cancer cells", "test": "Cell number after peptide treatment, MDA-MB-468", "format": "cell-based, human", "settings": "6 days, 0 μM to 50 μM; stock without BSA", "protocol": "Replicate cultures of MDA-MB-468 breast cancer cells, A549 lung cancer cells and 293T transformed embryonic kidney cells were exposed to CP-DN-CEBPB or CP-DN-CEBPD, for 6 days at doses of 0 μM to 50 μM. […] Stock solutions of the peptides were prepared in buffer without added bovine serum albumin (BSA)."}, "[13]": {"test_system": "A375 cells", "test": "A375 subcutaneous tumors, 10 or 20 mg/kg study", "format": "in vivo, NCR nude mice", "settings": "10 or 20 mg/kg intraperitoneally; for tumor growth (calculated tumor volumes): to day 24", "protocol": "A375 cells were subcutaneously implanted in the flanks of NCR nude mice. After tumors had formed, the animals were treated intraperitoneally with 10 or 20 mg/kg of CP-dn-CEBPB, CP-dn-CEBPD or vehicle as indicated in the schema shown in FIG. 37A. Animal weight was monitored (FIG. 37B). Tumor sizes were measured and volumes calculated on each day of injection. […] FIG. 37D compares calculated individual and mean tumor volumes for vehicle, CP-dn-CEBPB and CP-dn-CEBPD treated animals on day 24."}, "[14]": {"test_system": "U251 gliblastoma multiforme cells", "test": "Cell number after peptide treatment, U251", "format": "cell-based", "settings": "6 days, 0 μM to 50 μM; stock without BSA", "protocol": "as §3"}}, "note": "No end group written: not given here."}
{"sequence": "RQIKIWFQNRRMKWKKLETQHKVLELTAENERLQKKVEQLSRELSTLRNLFKQL [CP-DN-CEBPB]", "values": [{"measurement": "proportion of cells with apoptotic nuclei", "setting": "[1]", "value": "increased apoptotic cell death"}, {"measurement": "apoptotic death (early or late apoptotic phase)", "setting": "[2]", "value": "caused apoptotic death in multiple cancer cell lines"}, {"measurement": "lowest dose at which growth was inhibited, soft agar", "setting": "[3]", "value": 0.5, "unit": "µM"}, {"measurement": "lowest dose at which growth was inhibited, culture plates", "setting": "[4]", "value": 0.5, "unit": "µM"}, {"measurement": "relative levels of IL6 mRNA", "setting": "[5]", "value": "suppress expression"}, {"measurement": "lowest dose at which growth was inhibited, soft agar", "setting": "[6]", "value": 0.5, "unit": "µM"}, {"measurement": "proportion of cells with apoptotic nuclei", "setting": "[7]", "value": "increased apoptotic cell death"}, {"measurement": "growth and survival / numbers of HCT116 cells", "setting": "[8]", "value": "decrease in growth and survival"}, {"measurement": "relative levels of ASNS", "setting": "[9]", "value": "suppress expression of ASNS"}, {"measurement": "relative levels of BMF transcripts", "setting": "[10]", "value": "upregulate pro-apoptotic BMF"}, {"measurement": "growth and survival / numbers of MDA-MB-231 cells", "setting": "[11]", "value": "decrease in growth and survival"}, {"measurement": "number of MDA-MB-468 cells", "setting": "[12]", "value": "dose-dependent decrease in the number"}, {"measurement": "side effects (animal weight monitored)", "setting": "[13]", "value": "no apparent side effects"}, {"measurement": "tumor growth (calculated tumor volumes)", "setting": "[13]", "value": "suppressed tumor growth"}, {"measurement": "growth and survival of U251 cells", "setting": "[14]", "value": "decrease in growth and survival"}]}
{"sequence": "RQIKIWFQNRRMKWKKLVELSAENEKLHQRVEQLTRDLAGLRQFFK [CP-DN-CEBPD]", "values": [{"measurement": "proportion of cells with apoptotic nuclei", "setting": "[1]", "value": "increased apoptotic cell death"}, {"measurement": "apoptotic death (early or late apoptotic phase)", "setting": "[2]", "value": "caused apoptotic death in multiple cancer cell lines"}, {"measurement": "lowest dose at which growth was inhibited, soft agar", "setting": "[3]", "value": 0.5, "unit": "µM"}, {"measurement": "lowest dose at which growth was inhibited, culture plates", "setting": "[4]", "value": 0.5, "unit": "µM"}, {"measurement": "relative levels of IL6 mRNA", "setting": "[5]", "value": "suppress expression"}, {"measurement": "lowest dose at which growth was inhibited, soft agar", "setting": "[6]", "value": 0.5, "unit": "µM"}, {"measurement": "proportion of cells with apoptotic nuclei", "setting": "[7]", "value": "increased apoptotic cell death"}, {"measurement": "growth and survival / numbers of HCT116 cells", "setting": "[8]", "value": "decrease in growth and survival"}, {"measurement": "relative levels of ASNS", "setting": "[9]", "value": "suppress expression of ASNS"}, {"measurement": "relative levels of BMF transcripts", "setting": "[10]", "value": "upregulate pro-apoptotic BMF"}, {"measurement": "growth and survival / numbers of MDA-MB-231 cells", "setting": "[11]", "value": "decrease in growth and survival"}, {"measurement": "number of MDA-MB-468 cells", "setting": "[12]", "value": "dose-dependent decrease in the number"}, {"measurement": "side effects (animal weight monitored)", "setting": "[13]", "value": "no apparent side effects"}, {"measurement": "tumor growth (calculated tumor volumes)", "setting": "[13]", "value": "suppressed tumor growth"}, {"measurement": "growth and survival of U251 cells", "setting": "[14]", "value": "decrease in growth and survival"}]}
